# In patent US8871681B2, “Herbicidal compositions comprising 4-amino-3-chloro-5-fluoro-6-(4-chloro-2-fluoro-3-methoxyphenyl) pyridine-2-carboxylic acid or a derivative thereof and certain sulfonylureas” (Dow AgroSciences LLC, priority 2012, dated 2014):
# “And” between values parts separate entries of the source, which are not always exact repeats. Equal entries are not always repeated. Where two headings read alike, the source gives them in different places.
# Tests used:
# Assay in all cases: Postemergence foliar-applied weed control, direct seeded rice, greenhouse (Example I)
# [1] = tested on: LEFCH (Leptochloa chinensis, Chinese sprangletop); assay type: in vivo, Leptochloa chinensis (L.) Nees; settings: for pest or weed control at 4.38 g/ha: 4.38 gae/ha; for pest or weed control at 8.75 g/ha: 8.75 gae/ha
# In short: (§1)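 Greenhouse-grown plants (14 h photoperiod, 29/26 °C day/night) at first to fourth true leaf stage sprayed overhead at 187 L/ha with Compound A (acid equivalent basis) alone or mixed with sulfonylurea ALS inhibitors (active ingredient basis). Final spray contained 1.25% v/v crop oil concentrate; controls received solvent blank.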
# [2] = tested on: ECHCG (Echinochloa crusgalli, barnyardgrass); assay type: in vivo, Echinochloa crusgalli (L.) Beauv.
# Excerpt: Seeds or nutlets of the desired test plant species were planted in a soil matrix prepared by mixing a loam or sandy loam soil (e.g., 28.6 percent silt, 18.8 percent clay, and 52.6 percent sand, with a pH of about 5.8 and an organic matter content of about 1.8 percent) and calcareous grit in an 80 to 20 ratio. The soil matrix was contained in plastic pots with a volume of 1 quart and a surface area of 83.6 square centimeters (cm^2). When required to ensure good germination and healthy plants, a fungicide treatment and/or other chemical or physical treatment was applied. The plants were grown for 8-22 days in a greenhouse with an approximate 14 h photoperiod which was maintained at about 29° C. during the day and 26° C. during the night. Nutrients (Peters Excel® 15-5-15 5-Ca 2-Mg and iron chelate) were applied in the irrigation solution as needed and water was added on a regular basis. Supplemental lighting was provided with overhead metal halide 1000-Watt lamps as necessary. The plants were employed for testing when they reached the first through fourth true leaf stage.
# Treatments consisted of the acid or esters of 4-amino-3-chloro-5-fluoro-6-(4-chloro-2-fluoro-3-methoxy-phenyl)pyridine-2-carboxylic acid (Compound A), each formulated as an SC, and various herbicidal components alone and in combination. Forms of compound A were applied on an acid equivalent basis.
# Other herbicidal components were applied on an active ingredient basis and included acetolactate synthase (ALS)-inhibiting herbicides (sulfonylurea chemical class) azimsulfuron formulated as Gulliver®, bensulfuron-methyl formulated as Londax® 60DF, cyclosulfamuron (technical material), ethoxysulfuron formulated as Sunrice® 15 WDG, flazasulfuron formulated as Katana®, flucetosulfuron formulated as Sukedachi® 1KG G, foramsulfuron formulated as Option®, imazosulfuron formulated as Brazzos® WG, iodosulfuron-methyl-sodium formulated as Hussar®, metsulfuron-methyl formulated as Lorate®, nicosulfuron formulated as Accent®, orthosulfamuron formulated as Strada® WG, primisulfuron-methyl (technical material), propyrisulfuron formulated as Zeta One®, rimsulfuron formulated as Matrix® WG, sulfometuron-methyl formulated as Oust®, and trifloxysulfuron-sodium formulated as Monument® 75WG.
# Treatment requirements were calculated based upon the rates being tested, the concentration of active ingredient or acid equivalent in the formulation, and a 12 mL application volume at a rate of 187 L/ha.
# For treatments comprised of formulated compounds, measured amounts of compounds were placed individually in 25 mL glass vials and diluted in a volume of 1.25% (v/v) Agri-Dex® crop oil concentrated to obtain 12× stock solutions. […] Application solutions were prepared by adding an appropriate amount of each stock solution (e.g., 1 mL) and diluted to the appropriate final concentrations with the addition of 10 mL of an aqueous mixture of 1.25% (v/v) crop oil concentrate so that the final spray solutions contained 1.25+/−0.05% (v/v) Agrcrop oil concentrate.
# For treatments comprised of formulated and technical compounds, weighed amounts of the technical materials were placed individually in 25 mL glass vials and dissolved in a volume of 97:3 v/v acetone/DMSO to obtain 12× stock solutions, and measured amounts of the formulated compounds were placed individually in 25 mL glass vials and diluted in a volume of 1.25% (v/v) crop oil concentrate to obtain 12× stock solutions. […] Application solutions were prepared by adding an appropriate amount of each stock solution (e.g., 1 mL) and diluted to the appropriate final concentrations with the addition of an appropriate amount of an aqueous mixture of 1.5% (v/v) crop oil concentrate so that the final spray solutions contained 1.25% (v/v) crop oil concentrate. […]
# [3] = tested on: IPOHE (Ipomoea hederacea, ivyleaf morningglory); assay type: in vivo, Ipomoea hederacea Jacq.
# In short: as §1
# [4] = tested on: CYPIR (Cyperus iria, rice flatsedge); assay type: in vivo, Cyperus iria L.
# In short: as §1
# [5] = Dinebra chinensis, post-emergence, 480 h, 20 DAA, read-out: Visual Weed Control (%) Obs
structure (smiles),measurement,setting,value
"COC(=O)c1ccccc1CS(=O)(=O)NC(=O)Nc1nc(OC)cc(OC)n1 [Bensulfuron-methyl, methyl 2-[[[[[(4,6-dimethoxy-2-pyrimidinyl)amino]carbonyl]amino]sulfonyl]methyl]benzoate, reference compound]",pest or weed control at 70 g/ha,"[1]; Dinebra chinensis, post-emergence, 480 h, 20 DAA, 70 gai/ha, read-out: Visual Weed Control (%) Obs",5%
same,pest or weed control at 17.5 g/ha,"[1]; Dinebra chinensis, post-emergence, 504 h, 21 DAA, 17.5 gai/ha, read-out: Visual Weed Control (%) Obs",10%
same,pest or weed control at 35 g/ha,"[1]; Dinebra chinensis, post-emergence, 504 h, 21 DAA, 35 gai/ha, read-out: Visual Weed Control (%) Obs",10%
same,Visual Weed Control (%) Obs,"[2]; 21 DAA, 17.5 gai/ha",0%
same,Visual Weed Control (%) Obs,"[2]; 21 DAA, 35 gai/ha",0%
same,Visual Weed Control (%) Obs,"[2]; 27 DAA, 4.38 gai/ha",0%
same,Visual Weed Control (%) Obs,"[2]; 27 DAA, 8.75 gai/ha",0%
same,Visual Weed Control (%) Obs,"[2]; 27 DAA, 17.5 gai/ha",0%
"COc1c(Cl)ccc(-c2nc(C(=O)O)c(Cl)c(N)c2F)c1F [Compound A Acid, 4-amino-3-chloro-5-fluoro-6-(4-chloro-2-fluoro-3-methoxy-phenyl)pyridine-2-carboxylic acid]",pest or weed control at 4.38 g/ha,[1]; [5],0%
same,pest or weed control at 5.3 g/ha,"[1]; Dinebra chinensis, post-emergence, 480 h, 20 DAA, 5.3 gae/ha, read-out: Visual Weed Control (%) Obs",0%
same,pest or weed control at 8.75 g/ha,[1]; [5],0%
same,pest or weed control at 10.6 g/ha,"[1]; Dinebra chinensis, post-emergence, 480 h, 20 DAA, 10.6 gae/ha, read-out: Visual Weed Control (%) Obs",10%
same,pest or weed control at 17.5 g/ha,"[1]; Dinebra chinensis, post-emergence, 480 h, 20 DAA, 17.5 gae/ha, read-out: Visual Weed Control (%) Obs",10%
same,pest or weed control at 19.4 g/ha,"[1]; Dinebra chinensis, post-emergence, 480 h, 20 DAA, 19.4 gae/ha, read-out: Visual Weed Control (%) Obs",5%
same,pest or weed control at 21.2 g/ha,"[1]; Dinebra chinensis, post-emergence, 480 h, 20 DAA, 21.2 gae/ha, read-out: Visual Weed Control (%) Obs",15%
same,pest or weed control at 8.75 g/ha,"[1]; Dinebra chinensis, post-emergence, 504 h, 21 DAA, read-out: Visual Weed Control (%) Obs",40%
same,pest or weed control at 17.5 g/ha,"[1]; Dinebra chinensis, post-emergence, 504 h, 21 DAA, 17.5 gae/ha, read-out: Visual Weed Control (%) Obs",30%
same,Visual Weed Control (%) Obs,"[3]; 20 DAA, 5.3 gae/ha",0%
same,Visual Weed Control (%) Obs,"[3]; 20 DAA, 10.6 gae/ha",15%
same,Visual Weed Control (%) Obs,"[3]; 20 DAA, 21.2 gae/ha",25%
same,Visual Weed Control (%) Obs,"[3]; 21 DAA, 4.38 gae/ha",25%
same,Visual Weed Control (%) Obs,"[3]; 21 DAA, 8.75 gae/ha",30%
same,Visual Weed Control (%) Obs,"[3]; 21 DAA, 17.5 gae/ha",45%
same,Visual Weed Control (%) Obs,"[3]; 22 DAA, 8 gae/ha",25%
same,Visual Weed Control (%) Obs,"[3]; 22 DAA, 16 gae/ha",35%
same,Visual Weed Control (%) Obs,"[3]; 22 DAA, 32 gae/ha",40%
same,Visual Weed Control (%) Obs,"[4]; 21 DAA, 4.38 gae/ha",70%
same,Visual Weed Control (%) Obs,"[4]; 22 DAA, 8 gae/ha",60%
same,Visual Weed Control (%) Obs,"[4]; 22 DAA, 16 gae/ha",90%
same,Visual Weed Control (%) Obs,"[2]; 21 DAA, 4.38 gae/ha",15%
same,Visual Weed Control (%) Obs,"[2]; 21 DAA, 8.75 gae/ha",50%
COc1c(Cl)ccc(-c2nc(C(=O)OCc3ccccc3)c(Cl)c(N)c2F)c1F [Compound A Benzyl Ester],Visual Weed Control Obs,"[1]; 22 DAA, 8 gae/ha",0%
same,pest or weed control at 8.75 g/ha,"[1]; Dinebra chinensis, post-emergence, 480 h, read-out: Visual Weed Control (%) Obs, 20 DAA",20%
same,pest or weed control at 17.5 g/ha,"[1]; Dinebra chinensis, post-emergence, 480 h, read-out: Visual Weed Control (%) Obs, 20 DAA, 17.5 gae/ha",40%
same,pest or weed control at 4.38 g/ha,"[1]; Dinebra chinensis, post-emergence, 504 h, read-out: Visual Weed Control (%) Obs, 21 DAA",0%
same,pest or weed control at 8 g/ha,"[1]; Dinebra chinensis, post-emergence, 504 h, read-out: Visual Weed Control (%) Obs, 21 DAA, 8 gae/ha",20%
same,pest or weed control at 8 g/ha,"[1]; Dinebra chinensis, post-emergence, 528 h, read-out: Visual Weed Control (%) Obs, 22 DAA, 8 gae/ha",0%
same,pest or weed control at 16 g/ha,"[1]; Dinebra chinensis, post-emergence, 528 h, read-out: Visual Weed Control (%) Obs, 22 DAA, 16 gae/ha",20%
same,pest or weed control at 32 g/ha,"[1]; Dinebra chinensis, post-emergence, 528 h, read-out: Visual Weed Control (%) Obs, 22 DAA, 32 gae/ha",15%
same,pest or weed control at 8.75 g/ha,"[1]; Dinebra chinensis, post-emergence, 576 h, read-out: Visual Weed Control (%) Obs, 24 DAA",0%
same,pest or weed control at 17.5 g/ha,"[1]; Dinebra chinensis, post-emergence, 576 h, read-out: Visual Weed Control (%) Obs, 24 DAA, 17.5 gae/ha",10%
same,Visual Weed Control (%) Obs,"[3]; 20 DAA, 4.38 gae/ha",10%
same,Visual Weed Control (%) Obs,"[3]; 20 DAA, 8.75 gae/ha",10%
same,Visual Weed Control (%) Obs,"[3]; 20 DAA, 17.5 gae/ha",25%
same,Visual Weed Control (%) Obs,"[3]; 21 DAA, 4.38 gae/ha",0%
same,Visual Weed Control (%) Obs,"[3]; 21 DAA, 8 gae/ha",10%
same,Visual Weed Control (%) Obs,"[3]; 21 DAA, 8.75 gae/ha",10%
same,Visual Weed Control (%) Obs,"[3]; 21 DAA, 16 gae/ha",10%
same,Visual Weed Control (%) Obs,"[3]; 21 DAA, 17.5 gae/ha",30%
same,Visual Weed Control (%) Obs,"[3]; 21 DAA, 32 gae/ha",45%
same,Visual Weed Control Obs,"[3]; 22 DAA, 8 gae/ha",10%
same,Visual Weed Control Obs,"[3]; 22 DAA, 16 gae/ha",10%
same,Visual Weed Control Obs,"[3]; 22 DAA, 32 gae/ha",35%
same,Visual Weed Control (%) Obs,"[4]; 20 DAA, 4.38 gae/ha",15%
same,Visual Weed Control (%) Obs,"[4]; 20 DAA, 8.75 gae/ha",60%
same,Visual Weed Control (%) Obs,"[4]; 20 DAA, 17.5 gae/ha",90%
same,Visual Weed Control (%) Obs,"[4]; 21 DAA, 4.38 gae/ha",50%
same,Visual Weed Control (%) Obs,"[4]; 22 DAA, 16 gae/ha",60% and 80%
same,Visual Weed Control (%) Obs,"[2]; 21 DAA, 4.38 gae/ha",10%
"COCC(=O)OC(c1ncccc1S(=O)(=O)NC(=O)Nc1nc(OC)cc(OC)n1)C(C)F (stereo not shown) [Flucetosulfuron, 1-[3-[[[[(4,6-dimethoxy-2-pyrimidinyl)amino]carbonyl]amino]sulfonyl]-2-pyridinyl]-2-fluoropropyl 2-methoxyacetate]",pest or weed control at 0.05 g/ha,"[1]; Dinebra chinensis, post-emergence, 504 h, 21 DAA, 0.05 gai/ha, read-out: Visual Weed Control (%) Obs",0%
same,pest or weed control at 0.1 g/ha,"[1]; Dinebra chinensis, post-emergence, 504 h, 21 DAA, 0.1 gai/ha, read-out: Visual Weed Control (%) Obs",0%
same,pest or weed control at 1.7 g/ha,"[1]; Dinebra chinensis, post-emergence, 528 h, 22 DAA, 1.7 gai/ha, read-out: Visual Weed Control (%) Obs",0%
same,pest or weed control at 5 g/ha,"[1]; Dinebra chinensis, post-emergence, 528 h, 22 DAA, 5 gai/ha, read-out: Visual Weed Control (%) Obs",0%
same,Visual Weed Control (%) Obs,"[3]; 21 DAA, 0.05 gai/ha",20%
same,Visual Weed Control (%) Obs,"[3]; 21 DAA, 0.2 gai/ha",20%
same,Visual Weed Control (%) Obs,"[3]; 22 DAA, 5 gai/ha",90%
same,Visual Weed Control (%) Obs,"[3]; 22 DAA, 10 gai/ha",90%
same,Visual Weed Control (%) Obs,"[4]; 21 DAA, 0.05 gai/ha",0%
same,Visual Weed Control (%) Obs,"[4]; 21 DAA, 0.1 gai/ha",0%
same,Visual Weed Control (%) Obs,"[4]; 21 DAA, 0.2 gai/ha",20%
